Drawing on patent US12357603B2, “Acyl sulfonamides for treating cancer” (Bayer Aktiengesellschaft, priority 2019, dated 2025), this text covers EC50 and IC50 for 21 compounds.

In one test the test system is MDA-MB-436 cells. Kind of test: Proliferation assay MDA-MB-436, negative control cell line (Alamar Blue, 144 h). In kind it is cell-based. The settings on record: arithmetic mean. The source says: (§1) Proliferation Assays for Compound Characterization
(§2) For compound characterization cell survival assays were routinely run in two cell lines. ZR-75-1 is a breast carcinoma cell line containing a focal KAT6A amplification and high KAT6A protein expression. Proliferation of this cell line is inhibited upon treatment with KAT6A inhibitors. As a negative control cell line MDA-MB-436 were used. These cells carry a […] deletion of the KAT6A gene, have a low KAT6A protein expression and are not growth inhibited upon treatment with KAT6A inhibitors.
(§3) For measurements cell lines were plated at the below indicated concentration per […] in 96-well plates in a humidified incubator at 37° C. and 5% CO2.
MDA-MB-436 (CLS, 300278; breast adenocarcinoma); 3000 cells per well; culture medium: DMEM/Ham's F12 (Biochrom #FG 4815) medium containing 2.5% FBS (Biochrom #S0615).
(§4) 24 hours later, cells were treated with compounds (stock solution, 10 mM in DMSO) using the HP D300 Digital Dispenser in a concentration range of 2.0×10E-5 M to 2.0×10E-9 M in a single-dot curve with 9 dilutions and a DMSO concentration of 0.2%. Each sample was prepared as triplicate and rim wells were excluded. Plates were incubated at 37° C. and 5% CO2 for 144 h. Cell viability was measured by adding 10 μL of Alamar Blue Reagent (Invitrogen #DAL 1100) and plates were incubated for 2 h at 37° C. and 5% CO2. Fluorescence was measured at 590 nm wavelength with a Tecan Spark or Victor X3 MTP-Reader (PerkinElmer).
In general terms: Alamar Blue is a resazurin reagent that responds to reducing activity.

In the next test the test system is ZR-75-1 cells. In words: Proliferation assay ZR-75-1 (Alamar Blue, 144 h). In kind it is cell-based. The settings on record: Homo sapiens, ZR-75-1, 144 h, arithmetic mean, read-out: ZR75-1 proliferation assay, EC50 [M] (arithmetic mean).
Description: as §1, §2, §3
ZR-75-1 (ATCC, CRL-1500; breast carcinoma); 3000 cells per well; culture medium: RPMI 1640 (Biochrom #FG 1215) medium containing 2.5% FBS (Biochrom #S0615).
as §4

In test [1] the test system is ESR1 transcription (luciferase signal in MVLN cells). In words: Repression of ESR1 transcription, luciferase reporter in MVLN cells. The following applies: inhibition of luciferase signal in MVLN cells, arithmetic mean. In kind it is cell-based. The source says: Repression of ESR1 Transcription Upon Treatment of Cells with Compounds
KAT6A controls transcription of the ESR1 gene in breast cancer cells. Compound treatment that interferes with this mechanism was quantified using MVLN cells. These cells constitutively express the ER and are stably transfected with the luciferase (LUC) reporter gene and the corresponding hormone responsive element derived from the 5′-flanking region of the Xenopus Vitellogenin A2 gene (Pons et al., 1990, Demirpense et al., 1993, Joyeux et al., 1993). The repressive effect on ERα transcription activity of a test chemical is directly related to the luciferase measured in the lysate of treated MVLN cells.
Each sample was prepared as duplicate and rim wells were excluded. For luciferase signal determination 100 μl of a 1:1 mixture of Steadylite plus (Perkin Elmer; 6016759) and assay medium was added after 24 h for 15 minutes and measured in Victor X3 (Perkin Elmer). To exclude any effects caused by cell loss during the treatment, cell density was determined using Alamar Blue (Invitrogen; DAL1100). Prior to the luciferase measurement 10 μl Alamar Blue were added to each well and the plates were incubated for 2 h in the incubator. Then fluorescence was measured with Victor X3 (Perkin Elmer) at 530 nm/590 nm.
A general note: In a reporter assay the amount or activity of a reporter protein is the signal.

Test [2] deals with Recombinant human His-tagged Kat6a protein (amino acids 194-810) (Homo sapiens (Human), UniProt Q92794). Kind of test: Kat6a activity assay (TR-FRET, acetylation of biotinylated Histone-H4-derived peptide). In kind it is biochemical. The following applies: 60 mins at 22° C., read-out: KAT6A-DPF/HAT domain IC50 [mol/l] (arithmetic mean). The source says: Kat6a inhibitory activities of the compounds described in the present invention were quantified using a Fluorescence Resonance Energy Transfer (TR-FRET) assay which measures acetylation of a synthetic, biotinylated Histone-H4-derived peptide by the enzyme.
Recombinant human His-tagged Kat6a protein (amino acids 194-810), was purified in-house from Baculovirus-infected insect cells (Sf9). Histone H4 peptide (amino acids 1-24, […]-VLRD-K(Btn)-amide), which was used as substrate, was synthesized by Biosyntan GmbH, Berlin, Germany. Acetyl Coenzyme A was purchased from Sigma-Aldrich (#A-2056).
Kat6a was incubated for 60 mins at 22° C. in the presence of different concentrations of test substances (0 μM, and within the range 0.01-20 μM) in assay buffer [25 mM Tris/HCl pH 8, 1 mM EGTA, 2.5 mM Glutathion, 0.02% Chicken Albumin, 0.05% Pluronic F127, 25 mM NaCl, 220 nM H4 peptide and 600 nM Acetyl Coenzym A].
The reaction was stopped by addition of Detection Solution (25 mM HEPES pH 7.5, 0.1% BSA, 22 nM SAXL665 (Cisbio #610SAXLE), 100 μM Anacardic Acid (Enzo #ALX-270-381), 1 nM Anti-Histone H4 (ACETYL K8) Antibody (ABCAM #AB15823) and 0.5 nM Anti-Rabbit IgG Eu (Perkin Elmer #AD0083).
The fluorescence emission at 620 nm and 665 nm after excitation at 330-350 nm was measured in a TR-FRET measuring instrument, for instance a Rubystar or a Pherastar (both from BMG Lab Technologies, Offenburg, Germany) or a Viewlux (Perkin-Elmer). The ratio of the emission at 665 nm and at […] was used as indicator of the amount of acetylated peptide.
The resulting data (ratio) were normalized, taking 0% inhibition as the mean value of control measurements where all reagents were included. In this case 50 nl DMSO were used instead of compounds. […] IC50 values were determined by regression analysis based on a 4 parameter equation (minimum, maximum, ICM, Hill; Y=Max+(Min−Max)/(1+(X/ICso) Hill) using the Screener Software (Genedata).
Table 5 depicts the IC50 values of selected examples in biochemical KAT6A and KAT6B3 assays.
(In TR-FRET formats the signal depends on donor and acceptor labels being close together.)

Setting [3] is: Homo sapiens, MDA-MB-436, 144 h.

Recombinant human His-tagged Kat6a protein (amino acids 194-810), sequence (Q92794 194-810): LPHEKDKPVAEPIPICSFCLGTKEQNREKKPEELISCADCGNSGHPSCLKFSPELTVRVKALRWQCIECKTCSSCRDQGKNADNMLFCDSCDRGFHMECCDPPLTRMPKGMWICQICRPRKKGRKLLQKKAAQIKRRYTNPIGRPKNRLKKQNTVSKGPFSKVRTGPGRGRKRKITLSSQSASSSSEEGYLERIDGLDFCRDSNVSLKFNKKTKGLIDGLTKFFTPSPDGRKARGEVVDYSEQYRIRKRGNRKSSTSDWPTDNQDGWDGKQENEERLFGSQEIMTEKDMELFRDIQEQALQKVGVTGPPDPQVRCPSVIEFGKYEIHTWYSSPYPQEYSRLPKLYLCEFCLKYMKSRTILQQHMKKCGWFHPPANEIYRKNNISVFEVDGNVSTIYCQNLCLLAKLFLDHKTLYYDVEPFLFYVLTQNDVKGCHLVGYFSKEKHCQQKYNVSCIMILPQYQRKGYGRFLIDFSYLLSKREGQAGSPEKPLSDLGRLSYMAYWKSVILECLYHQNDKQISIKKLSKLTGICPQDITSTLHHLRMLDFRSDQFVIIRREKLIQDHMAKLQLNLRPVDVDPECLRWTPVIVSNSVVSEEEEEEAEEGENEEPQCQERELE

Consider `CCCc1ccccc1S(=O)(=O)NC(=O)c1cc2ccc(N(C)C)cc2o1` [Example 52, 6-(Dimethylamino)-N-(2-propylbenzene-1-sulfonyl)-1-benzofuran-2-carboxamide], for which the EC50 in the test on MDA-MB-436 cells (setting [3]) is more than 20000 nM; in the test on ZR-75-1 cells, 1.94e-07 M.
Consider `CCc1ccc2nc(C)c(S(=O)(=O)NC(=O)c3cc4ccc(N(C)C)cc4o3)n2n1` [Example 94, 6-(Dimethylamino)-N-(6-ethyl-2-methylimidazo[1,2-b]pyridazine-3-sulfonyl)-1-benzofuran-2-carboxamide], for which the IC50 in test [1] (Homo sapiens, MVLN) worked out at 460 nM; in test [2], 287 nM. The EC50 in the test with MDA-MB-436 cells (setting [3]) is more than 20000 nM.
`CCOc1ccc(Br)cc1S(=O)(=O)NC(=O)c1cc2ccc(N(C)CCOC)cc2o1` [Example 213, N-(5-Bromo-2-ethoxybenzene-1-sulfonyl)-6-[(2-methoxyethyl)(methyl)amino]-1-benzofuran-2-carboxamide] displayed an IC50 in test [1] (Homo sapiens, MVLN) of 9880 nM. For the same compound, the EC50 with MDA-MB-436 cells (setting [3]) is more than 20000 nM; with ZR-75-1 cells it was 8.48e-06 M.
As for `CCOc1ccccc1S(=O)(=O)NC(=O)c1cc2cc(C(F)(F)F)c(N(C)C)cc2o1` [Example 201, 6-(Dimethylamino)-N-(2-ethoxybenzene-1-sulfonyl)-5-(trifluoromethyl)-1-benzofuran-2-carboxamide], the IC50 worked out at 4230 nM in test [1] (Homo sapiens, MVLN) and 137 nM in test [2]. Further, in the test on ZR-75-1 cells, the EC50 worked out at 2.9e-06 M.
For `CC(O)c1ccc(Cl)c(S(=O)(=O)NC(=O)c2cc3ccc(N(C)C)cc3o2)c1` (stereo not drawn) [Example 163], in that order: more than 20000 nM, 4350 nM and 9.38e-07 M.
As for `CN(C)c1c(Br)cc2cc(C(=O)NS(=O)(=O)c3ccccc3-c3ccccc3)oc2c1F` [Example 206, N-([1,1′-Biphenyl]-2-sulfonyl)-5-bromo-6-(dimethylamino)-7-fluoro-1-benzofuran-2-carboxamide], the IC50 in test [1] (Homo sapiens, MVLN) amounted to 9500 nM. Besides, the EC50 is more than 20000 nM in the test with MDA-MB-436 cells (setting [3]) and more than 2e-05 M with ZR-75-1 cells.
Turning to `Cc1cnc(Cl)c(S(=O)(=O)NC(=O)c2cc3ccc(N(C)C)cc3o2)c1` [Example 154], the IC50 in test [1] (Homo sapiens, MVLN) came out at 11500 nM; in test [2] it was 3080 nM. Further, in the test on ZR-75-1 cells, the EC50 came to 7e-06 M.
For the compound `CN(c1ccc2cc(C(=O)NS(=O)(=O)c3ccccc3-c3ccccc3)oc2c1)C1CCCC1` [Example 46, N-([1,1′-Biphenyl]-2-sulfonyl)-6-[cyclopentyl(methyl)amino]-1-benzofuran-2-carboxamide], in test [1] (Homo sapiens, MVLN), the IC50 was more than 20000 nM. Besides, the EC50 was more than 20000 nM in the test on MDA-MB-436 cells (setting [3]) and more than 2e-05 M in the test with ZR-75-1 cells.
For the compound `CN(C)c1ccc2cc(C(=O)NS(=O)(=O)Cc3ccccn3)oc2c1` [Example 106, 6-(Dimethylamino)-N-[(pyridin-2-yl)methanesulfonyl]-1-benzofuran-2-carboxamide], the IC50 in test [1] (Homo sapiens, MVLN) is more than 20000 nM; in test [2] it was 3200 nM. In addition, the EC50 in the test with MDA-MB-436 cells (setting [3]) is more than 20000 nM.
In turn, `CN(C)c1ccc2cc(C(=O)NS(=O)(=O)c3cc(Cl)cc4cccnc34)oc2c1` [Example 124, N-(6-Chloroquinolone-8-sulfonyl)-6-(dimethylamino)-1-benzofuran-2-carboxamide] had an IC50 in test [1] (Homo sapiens, MVLN) of 254 nM. The compound also registered an EC50 with MDA-MB-436 cells (setting [3]) of more than 20000 nM.
Turning to `CN(C)c1ccc2cc(C(=O)NS(=O)(=O)c3ccccc3-c3ccccc3)n(C)c2c1` [Example 210, N-([1,1′-Biphenyl]-2-sulfonyl)-6-(dimethylamino)-1-methyl-1H-indole-2-carboxamide], the IC50 in test [1] (Homo sapiens, MVLN) was 11300 nM; in test [2] it was 6660 nM. Also, the EC50 with ZR-75-1 cells is more than 2e-05 M.
For the compound `C[C@@H](Oc1cccc(OC2CCC2)c1S(=O)(=O)NC(=O)c1cc2ccc(N(C)C)cc2o1)C(F)(F)F` (single isomer, unassigned) [Example 222], the results for the IC50 in test [1] and in test [2] were 595 nM and 30.6 nM, respectively. For the same compound, in the test on MDA-MB-436 cells, the EC50 is more than 20000 nM.
Turning to `C[C@H](Oc1cccc(OC2CCC2)c1S(=O)(=O)NC(=O)c1cc2ccc(N(C)C)cc2o1)C(F)(F)F` (single isomer, unassigned) [Example 221], the IC50 came to 582 nM in test [1] and 44.4 nM in test [2]. In the test on MDA-MB-436 cells, the EC50 stood at 8250 nM.
On to `CN(C)c1ccc2cc(C(=O)NS(=O)(=O)c3cccnc3Cl)oc2c1` [Example 156], for which the IC50 in test [1] (Homo sapiens, MVLN) worked out at 971 nM; in test [2], 3530 nM. In addition, the EC50 in the test on ZR-75-1 cells is 4.97e-06 M.
Taken in the same sequence, the figures for `CN(C)c1ccc2cc(C(=O)NS(=O)(=O)c3cc(C(F)(F)F)ccc3NCC(F)F)oc2c1` [Example 165] were 5770 nM, 1290 nM and 9.21e-06 M.
With `CN(C)c1ccc2cc(C(=O)NS(=O)(=O)c3ccc([N+](=O)[O-])c4cccnc34)oc2c1` [Example 92, 6-(Dimethylamino)-N-(5-nitroquinoline-8-sulfonyl)-1-benzofuran-2-carboxamide], the IC50 amounted to 394 nM in test [1] (Homo sapiens, MVLN) and 151 nM in test [2]. Also, the EC50 in the test on ZR-75-1 cells amounted to 3.43e-07 M.
Taken in the same sequence, the figures for `CC(C)c1ccc(C(C)C)c(S(=O)(=O)NC(=O)c2cc3ccc(N(C)C)cc3o2)c1` [Example 162] were 2550 nM, 366 nM and more than 2e-05 M.
`CN(C)c1ccc2cc(C(=O)NS(=O)(=O)c3c(F)cccc3OCC3CC3)oc2c1` [Example 160]: the IC50 was 741 nM in test [1] (Homo sapiens, MVLN) and 324 nM in test [2]. Besides, the EC50 in the test with ZR-75-1 cells was 5.7e-06 M.
Regarding `COc1cc(C#N)ccc1S(=O)(=O)NC(=O)c1cc2ccc(N(C)C)cc2o1` [Example 53, N-(4-Cyano-2-methoxybenzene-1-sulfonyl)-6-(dimethylamino)-1-benzofuran-2-carboxamide], the IC50 in test [2] was 440 nM. For the same compound, the figures for the EC50 in the test on MDA-MB-436 cells (setting [3]) and with ZR-75-1 cells were more than 20000 nM and 2.64e-07 M, respectively.
Take `CN(C)c1ccc2cc(C(=O)NS(=O)(=O)c3ccccc3-c3ccc(CO)cc3)oc2c1` [Example 51, 6-(Dimethylamino)-N-[4′-(hydroxymethyl)[1,1′-biphenyl]-2-sulfonyl]-1-benzofuran-2-carboxamide]: the EC50 in the test with MDA-MB-436 cells (setting [3]) was more than 20000 nM; in the test with ZR-75-1 cells, 1.01e-07 M.
Turning to `CN(C)c1ccc2cc(C(=O)NS(=O)(=O)c3ccc(F)c(F)c3F)oc2c1` [Example 153], the IC50 is 2720 nM in test [1] (Homo sapiens, MVLN) and 906 nM in test [2]. Moreover, the EC50 in the test on ZR-75-1 cells was determined as 2.77e-06 M.
